Results published in US20210002232A1, “HETEROCYCLIC COMPOUNDS AS FUNGICIDES” (PI INDUSTRIES LTD., priority 2018, published 2021).

How the values were obtained:
Phakopsora pachyrhizi = Phakopsora pachyrhizi test in soybean, preventive spray in greenhouse; type: in vivo; conditions: preventive spray on soybean plants, inoculated one day after treatment, compared to the untreated check, read-out: control (efficacy from disease severity rating)
Pyricularia oryzae = assay: microbe, parasite or virus in culture; type: cell-based; conditions: 168 h, read-out: control
Alternaria solani = Alternaria solani (early blight of tomato/potato) mycelial radial growth on Potato Dextrose Agar; conditions: 168 h, read-out: control
Protocol: Compounds were dissolved in 0.3% DMSO & then added to Potato Dextrose Agar medium just prior to dispensing it into Petri dishes. 5 ml medium with compound in the desired concentration was dispensed into 60 mm sterile petri-plates. After solidification each plate was seeded with 5 mm size mycelial disc taken form periphery of actively growing virulent culture plate. Plates were incubated in growth chambers at 25° C. temperature and 60% relative humidity for seven days and radial growth was measured.

Corynespora cassiicola = Corynespora cassiicola (leaf spot of tomato) mycelial radial growth on Potato Dextrose Agar; type: cell-based; conditions: 300 ppm; radial growth after seven days, 25° C., 70% relative humidity; compared to the untreated check

## CS(=O)(=Nc1ccc(C2=NOC(C(F)(F)F)N2)cc1)c1ccccn1 (stereo not drawn) [Compound 24, Methyl(pyridin-2-yl)((4-(5-(trifluoromethyl)-4,5-dihydro-1,2,4-oxadiazol-3-yl)phenyl)imino)-λ^6-sulfanone]
Phakopsora pachyrhizi
  pest or weed control at 500 ppm: > 90%
Pyricularia oryzae
  inhibition of growth at 300 ppm: > 70%
Alternaria solani
  inhibition of growth at 300 ppm: > 70%

## Cc1ccc(S(C)(=O)=NCc2ccc(C3=NOC(C(F)(F)F)N3)cc2)cc1 (stereo not drawn) [Compound 30, methyl(p-tolyl)((4-(5-(trifluoromethyl)-4,5-dihydro-1,2,4-oxadiazol-3-yl)benzyl)imino)-λ^6-sulfanone]
Phakopsora pachyrhizi
  pest or weed control at 500 ppm: > 90%
Pyricularia oryzae
  inhibition of growth at 300 ppm: > 70%
Alternaria solani
  inhibition of growth at 300 ppm: > 70%

## CS(=O)(=NC(=O)c1ccc(-c2cc(C(F)(F)F)on2)cc1)c1ccc(C(F)(F)F)cc1 (stereo not drawn) [Compound 59, N-(methyl(oxo)(4-(trifluoromethyl)phenyl)-λ^6-sulfaneylidene)-4-(5-(trifluoromethyl)isoxazol-3-yl)benzamide]
Corynespora cassiicola
  control: more than 70%

## CN(CCOc1ccccc1)C(=O)c1ccc(-c2coc(C(F)(F)F)n2)cc1 [Compound 67, N-methyl-N-(2-phenoxyethyl)-4-(2-(trifluoromethyl)oxazol-4-yl)benzamide]
Phakopsora pachyrhizi
  pest or weed control at 500 ppm: > 90%
Pyricularia oryzae
  inhibition of growth at 300 ppm: > 70%
Alternaria solani
  inhibition of growth at 300 ppm: > 70%

## CN(C(=O)c1ccc(-c2coc(C(F)(F)F)n2)cc1)c1ccccc1 [Compound 82, N-methyl-N-phenyl-4-(2-(trifluoromethyl)oxazol-4-yl)benzamide]
Phakopsora pachyrhizi
  pest or weed control at 500 ppm: > 90%
Pyricularia oryzae
  inhibition of growth at 300 ppm: > 70%
Alternaria solani
  inhibition of growth at 300 ppm: > 70%

## CS(=O)(=NC(=O)c1ccc(-c2coc(C(F)(F)F)n2)cc1)c1ccccc1F (stereo not drawn) [Compound 84, N-((2-fluorophenyl)(methyl)(oxo)-λ^6-sulfaneylidene)-4-(2-(trifluoromethyl)oxazol-4-yl)benzamide]
Pyricularia oryzae
  inhibition of growth at 300 ppm: > 70%
Alternaria solani
  inhibition of growth at 300 ppm: > 70%
